{"source": "paper PMC4770308", "about": "“Discovery of a Chemical Tool Inhibitor Targeting the Bromodomains of TRIM24 and BRPF” (Journal of Medicinal Chemistry, 2015)", "key": {"[1]": {"target": "T1, PHD/bromodomain of TRIM24 (Homo sapiens, UniProt O15164)", "T1 construct": "His6 (N, cleaved yes); SUMO-1 (N, cleaved yes); made in house; host or cells: E. coli BL21(DE3)-R3-pRARE2", "T1 sequence (O15164 825-1006)": "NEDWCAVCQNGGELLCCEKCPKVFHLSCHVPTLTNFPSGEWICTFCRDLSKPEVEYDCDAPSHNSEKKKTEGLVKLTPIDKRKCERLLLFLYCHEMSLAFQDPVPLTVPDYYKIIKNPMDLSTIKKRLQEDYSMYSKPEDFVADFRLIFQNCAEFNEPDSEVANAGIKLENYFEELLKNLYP", "assay": "Isothermal titration calorimetry, TRIM24", "conditions": "single binding site model"}, "[2]": {"target": "T2, BRPF1 bromodomain (BRPF1B) (Homo sapiens, UniProt P55201)", "T2 sequence (P55201 628-732 limits assumed)": "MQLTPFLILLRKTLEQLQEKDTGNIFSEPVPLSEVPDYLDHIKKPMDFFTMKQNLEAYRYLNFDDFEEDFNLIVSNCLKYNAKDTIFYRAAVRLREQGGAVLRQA", "assay": "Isothermal titration calorimetry, BRPF1", "conditions": "single binding site model"}, "BRD1 (BRPF2) bromodomain": {"target": "T3, BRD1 (BRPF2) bromodomain (Homo sapiens, UniProt O95696)", "T3 sequence (O95696 562-666 limits assumed)": "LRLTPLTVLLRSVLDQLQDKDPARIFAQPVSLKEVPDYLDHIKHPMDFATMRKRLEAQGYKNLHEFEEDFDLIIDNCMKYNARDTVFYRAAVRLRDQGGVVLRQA", "assay": "Isothermal titration calorimetry, BRD1", "conditions": "single binding site model"}, "[3]": {"tested_on": "panel of 45 human bromodomains", "assay": "Temperature shift assay, bromodomain selectivity panel", "assay_type": "binding", "conditions": "45 bromodomains; ΔTm smaller than 1 degree not considered significant"}, "[4]": {"target": "T4, full length TRIM24 fused to GFP (Homo sapiens, UniProt O15164)", "T4 sequence (O15164 1-1050)": "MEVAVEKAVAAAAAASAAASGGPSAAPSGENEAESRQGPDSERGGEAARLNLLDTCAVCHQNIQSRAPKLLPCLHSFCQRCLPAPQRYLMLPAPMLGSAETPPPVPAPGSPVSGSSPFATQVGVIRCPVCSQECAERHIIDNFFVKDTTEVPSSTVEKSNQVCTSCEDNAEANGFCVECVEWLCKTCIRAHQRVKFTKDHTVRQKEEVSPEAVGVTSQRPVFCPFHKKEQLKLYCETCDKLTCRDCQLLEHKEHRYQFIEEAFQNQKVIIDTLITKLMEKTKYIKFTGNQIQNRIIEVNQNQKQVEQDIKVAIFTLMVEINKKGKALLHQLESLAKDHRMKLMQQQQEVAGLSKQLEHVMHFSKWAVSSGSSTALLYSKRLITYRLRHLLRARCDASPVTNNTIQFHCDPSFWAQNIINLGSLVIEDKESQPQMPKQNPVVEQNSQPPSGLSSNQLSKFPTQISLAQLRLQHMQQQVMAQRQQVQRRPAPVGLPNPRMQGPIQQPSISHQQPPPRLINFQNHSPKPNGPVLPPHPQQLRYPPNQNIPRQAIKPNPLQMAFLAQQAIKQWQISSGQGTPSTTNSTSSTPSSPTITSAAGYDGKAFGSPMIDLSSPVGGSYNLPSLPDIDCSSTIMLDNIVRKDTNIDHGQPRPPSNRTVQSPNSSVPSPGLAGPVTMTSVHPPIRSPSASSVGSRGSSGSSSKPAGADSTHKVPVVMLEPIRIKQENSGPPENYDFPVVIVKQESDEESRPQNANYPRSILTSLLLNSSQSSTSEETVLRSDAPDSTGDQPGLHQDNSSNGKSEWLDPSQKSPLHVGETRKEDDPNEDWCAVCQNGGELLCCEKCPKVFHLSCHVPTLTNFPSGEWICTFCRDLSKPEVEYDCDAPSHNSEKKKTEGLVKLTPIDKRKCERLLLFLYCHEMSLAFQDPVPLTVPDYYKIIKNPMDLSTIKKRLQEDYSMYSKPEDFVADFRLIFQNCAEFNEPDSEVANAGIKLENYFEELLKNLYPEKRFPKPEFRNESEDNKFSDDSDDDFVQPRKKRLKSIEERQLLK", "assay": "FRAP assay, TRIM24", "assay_type": "cell-based", "conditions": "1 μM, compared with N980F mutant"}, "[5]": {"target": "T5, triplicated BRPF1B bromodomain construct with nuclear localization signal (Homo sapiens, UniProt P55201)", "T5 sequence (P55201 628-732 limits assumed)": "T2 sequence (P55201 628-732 limits assumed)", "assay": "FRAP assay, BRPF1B", "assay_type": "cell-based", "conditions": "with SAHA"}, "[6]": {"tested_on": "panel of diverse cancer cell lines (MCF-7, RKO, MM1S, RCH-ACH, JJN-3)", "assay": "Cytotoxicity assay (CellTiter-Glo), cancer cell line panel", "assay_type": "cell-based", "conditions": "72 hours, 5 x E-05 M to 8 x E-08 M", "method": "(§1) A more comprehensive evaluation of the role of TRIM24 in cancer cell proliferation and chromatin biology would require the development of a tool compound with improved selectivity.\n(§2) Calorimetric experiments were performed on a VPqITC microqcalorimeter (MicroCalTM, LLC Northampton, MA). Protein solutions were buffer exchanged by gel filtration or dialysis into buffer (20 mM Hepes pH 7.5, 150 mM NaCl, and 0.5 mM tris (2qcarboxyethyl) phosphine (TCEP)]. All measurements were carried out at 293.15 K while stirring at 286 rpm. The micro syringe was loaded with a protein solution of 250 µM, the compound solution was prepared at 20 µM and 2mL for the cell. All injections were performed using an initial injection of 2 µl followed by 34 injections of 8 µl with a duration of 16 sec per injection and a spacing of 240 sec between injection. The data were analysed with the MicroCal ORIGIN software package employing a single binding site model. The first data point was excluded from the analysis.\n(§3) Thermodynamic parameters were calculated (∆G = ∆H q T∆S = qRTlnKB where ∆G, ∆H and ∆S are the changes in free energy, enthalpy and entropy of binding, respectively).\n(§4) Temperature shift assays have been carried out as described in Fedorov et al. 2.\n(§5) Fluorescence recovery after photobleaching (FRAP)\n(§6) The TRIM24 FRAP assay has been carried out as described in Philpott et al.3. […]"}, "[7]": {"tested_on": "MCF-7 breast cancer cell line", "assay": "Cytotoxicity assay (CellTiter-Glo), MCF-7", "assay_type": "cell-based", "conditions": "72 hours, concentration range tested", "method": "as §1, §2, §3, §4, §5, §6"}, "TRIM24 bromodomain": {"target": "T6, TRIM24 bromodomain (Homo sapiens, UniProt O15164)", "T6 sequence (O15164 899-1004 limits assumed)": "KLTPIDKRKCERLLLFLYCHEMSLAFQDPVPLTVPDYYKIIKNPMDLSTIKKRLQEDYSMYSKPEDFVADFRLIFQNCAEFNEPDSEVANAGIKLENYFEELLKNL", "assay": "AlphaScreen assay, TRIM24 bromodomain", "assay_type": "binding", "conditions": "6-methoxy (R2) analogues", "method": "However, the most interesting compounds of this series (3–5) also had 3–4 μM activity against TRIM24, which prompted us to explore this scaffold for the development of TRIM24 inhibitors (Table 1)."}}, "data": [{"smiles": "COc1ccc(Oc2cc3c(cc2NS(=O)(=O)c2ccc(OC)c(OC)c2)n(C)c(=O)n3C)cc1", "note": "[Compound 34]", "values": [{"measurement": "N (ITC stoichiometry), TRIM24", "setting": "[1]", "value": "0.923 ± 0.003"}, {"measurement": "N (ITC stoichiometry), BRPF1B", "setting": "[2]", "value": "0.996 ± 0.002"}, {"measurement": "N (ITC stoichiometry), BRD1", "setting": "BRD1 (BRPF2) bromodomain", "value": "1.127 ± 0.02"}, {"measurement": "selectivity in temperature shift (ΔTm) panel (in words)", "setting": "[3]", "value": "excellent selectivity of 34 for BRPF1B/2 and TRIM24"}, {"measurement": "fluorescent recovery half-time, TRIM24 FRAP (in words)", "setting": "[4]", "value": "effectively reduced fluorescent recovery half-time"}, {"measurement": "fluorescent recovery time, BRPF1B FRAP (in words)", "setting": "[5]", "value": "reduced recovery times"}, {"measurement": "cytotoxicity in cancer cell lines (in words)", "setting": "[6]", "value": "no significant cytotoxicity"}, {"measurement": "sensitivity of MCF-7 (in words)", "setting": "[7]", "value": "resistant"}]}, {"smiles": "COc1cc2c(cc1NS(=O)(=O)c1ccc(Br)cc1C)n(C)c(=O)n2C", "note": "[Compound 8]", "values": [{"measurement": "activity against TRIM24 (in words)", "setting": "TRIM24 bromodomain", "value": "lost activity against TRIM24"}]}]}
